Earlier results as cited in patent publication US20250235427A1, “5-METHOXY-N,N-[…][…] THE TREATMENT OF SOCIAL/EMOTIONAL […] DETACHMENT” (GH RESEARCH IRELAND LIMITED, priority 2022, published 2025).

Tested on: patients with treatment resistant bipolar depression
Settings: single 0.5·mg·kg^1 infusion; cited from earlier work

In the case of `CNC1(c2ccccc2Cl)CCCCC1=O` (centres unmarked) [ketamine], the “duration of anti-anhedonic effect” value is listed as “up to 14 days” and the “time to decrease of anhedonia (effect onset)” value is listed as ≤ 40 min.
